Source: US20260356856A1, “KRAS G12S AND G12C INHIBITORS” (MIRATI THERAPEUTICS, INC., priority 2023, published 2026)

Tests used:
KRas G12C = target: T1, KRas G12C (Homo sapiens, UniProt P01116, G12C); test: KRas binding assay, TR-FRET displacement of Cy5 labelled tracer; conditions: 60-minute incubation at room temperature, 1% DMSO, pH 7.5
T1 construct: Biotinylated KRas (corresponding to amino acids 1-169, produced at Accelegan Inc.); biotin (biotinylated); purchased Accelegan Inc
Outline: (§1)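 KRas aa 1-169, biotinylated; Tb-streptavidin donor; 1% DMSO final. Buffer: HEPES 50 mM (pH 7.5), MgCl2 5 mM, DTT 1 mM, Tween-20 0.005%. 60 min, RT. IC50 from 4-parameter fit of POC.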

KRas G12S = target: T2, KRas G12S (Homo sapiens, UniProt P01116, G12S); test: as above; conditions: 60-minute incubation at room temperature, 1% DMSO, pH 7.5
T2 construct: Biotinylated KRas (corresponding to amino acids 1-169, produced at Accelegan Inc.); biotin (biotinylated); purchased Accelegan Inc
T2 sequence (P01116 1-169 isoform P01116-2 G12S): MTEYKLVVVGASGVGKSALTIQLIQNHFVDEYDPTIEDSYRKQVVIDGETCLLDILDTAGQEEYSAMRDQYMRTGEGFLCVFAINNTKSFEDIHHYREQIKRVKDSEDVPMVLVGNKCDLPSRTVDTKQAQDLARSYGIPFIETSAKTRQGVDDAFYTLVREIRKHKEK
Outline: as §1

KRas WT = target: T3, KRas WT (Homo sapiens, UniProt P01116); test: as above; conditions: 60-minute incubation at room temperature, 1% DMSO, pH 7.5
T3 construct: Biotinylated KRas (corresponding to amino acids 1-169, produced at Accelegan Inc.); biotin (biotinylated); purchased Accelegan Inc
T3 sequence (P01116 1-169 isoform P01116-2): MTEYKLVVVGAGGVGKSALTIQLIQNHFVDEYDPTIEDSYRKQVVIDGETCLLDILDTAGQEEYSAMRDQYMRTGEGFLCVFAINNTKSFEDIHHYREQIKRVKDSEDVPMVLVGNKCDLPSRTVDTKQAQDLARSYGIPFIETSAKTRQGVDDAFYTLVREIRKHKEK
Outline: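 Truncated KRas (1-169), biotinylated, Tb-streptavidin donor; one-hour room-temperature incubation; IC50 by four-parameter curve fitting.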

[1] = target: T4, KRas-mediated phosphorylation of ERK in MKN1 cells (Homo sapiens, UniProt P01116); test: Inhibition of KRas-mediated phosphorylation of ERK (HTRF), MKN1 cells; assay type: cell-based; conditions: MKN1 cells (KRas WT); HTRF pERK; 3 h incubation
T4 construct: pERK HTRF read-out
T4 sequence (P01116 1-188 isoform P01116-2): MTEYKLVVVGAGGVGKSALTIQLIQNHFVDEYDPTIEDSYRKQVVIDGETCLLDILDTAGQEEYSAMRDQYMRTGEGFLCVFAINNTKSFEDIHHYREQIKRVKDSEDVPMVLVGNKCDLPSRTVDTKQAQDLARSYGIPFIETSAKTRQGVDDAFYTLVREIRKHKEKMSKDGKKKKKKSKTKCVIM
Procedure: Inhibition of KRas Phosphorylation of ERK (HTRF) by Exemplary Compounds of Formula (Ia) or (Ib)
Cisbio HTRF Advanced pERK Assay Catalog #64AERPEH • Cells: MKN1, PSN1 • Procedure: • 1. Day 1: Seed 6,000 cells/well −25 μl/well in 384-well white solid bottom plate; RPM1_10% FBS. Incubate overnight at 37 °C/5% CO2. • 2.

[2] = target: T5, KRas-mediated phosphorylation of ERK in A549 cells (Homo sapiens, UniProt P01116, G12S); test: Inhibition of KRas-mediated phosphorylation of ERK (HTRF), A549 cells; assay type: cell-based; conditions: HTRF pERK, 3 h incubation
T5 construct: pERK HTRF read-out
T5 sequence (P01116 1-188 isoform P01116-2 G12S): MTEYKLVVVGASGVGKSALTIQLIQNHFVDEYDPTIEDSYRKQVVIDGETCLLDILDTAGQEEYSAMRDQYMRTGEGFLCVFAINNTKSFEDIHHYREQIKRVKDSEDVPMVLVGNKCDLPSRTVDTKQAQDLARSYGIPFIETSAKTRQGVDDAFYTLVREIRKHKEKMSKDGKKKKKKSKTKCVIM

T1 sequence (P01116 1-169 isoform P01116-2 G12C): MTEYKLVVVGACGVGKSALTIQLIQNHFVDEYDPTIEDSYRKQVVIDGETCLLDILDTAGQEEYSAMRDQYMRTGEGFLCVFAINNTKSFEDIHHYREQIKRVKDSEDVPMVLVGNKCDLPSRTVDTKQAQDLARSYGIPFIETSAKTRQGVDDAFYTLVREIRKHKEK

Row | IC50 (KRas G12C) | IC50 (KRas G12S) | IC50 (KRas WT) | IC50 [1] | IC50 [2] | Compound
1 | 4840 nM | 4720 nM | 7690 nM | > 10000 nM | > 10000 nM | CCc1c(F)ccc2cc(O)cc(-c3ncc4c(N5C[C@H]6C[C@@H](C5)[C@H](C(=O)n5ccc(C)n5)C6)nc(OC[C@@]56CCCN5C[C@H](F)C6)nc4c3F)c12 [Example 100, ((1S,5R,6R)-3-(7-(8-ethyl-7-fluoro-3-hydroxynaphthalen-1-yl)-8-fluoro-2-(((2R,7aS)-2-fluorotetrahydro-1H-pyrrolizin-7a(5H)-yl)methoxy)pyrido[4,3-d]pyrimidin-4-yl)-3-azabicyclo[3.2.1]octan-6-yl)(3-methyl-1H-pyrazol-1-yl)methanone]
2 | 784 nM | 934 nM | 716 nM | 5550 nM | > 10000 nM | CCc1c(F)ccc2cc(O)cc(-c3ncc4c(N5CC(C(=O)n6ccc(C)n6)C(C)(C)C5)nc(OC[C@@]56CCCN5C[C@H](F)C6)nc4c3F)c12 (stereo partly drawn) [Example 101, (1-(7-(8-ethyl-7-fluoro-3-hydroxynaphthalen-1-yl)-8-fluoro-2-(((2R,7aS)-2-fluorotetrahydro-1H-pyrrolizin-7a(5H)-yl)methoxy)pyrido[4,3-d]pyrimidin-4-yl)-4,4-dimethylpyrrolidin-3-yl)(3-methyl-1H-pyrazol-1-yl)methanone]
3 | 252 nM | 2140 nM | 5920 nM | > 10000 nM | 1930 nM | C=CC1(C(=O)n2ccc(C)n2)CCN(c2nc(OC[C@@]34CCCN3C[C@H](F)C4)nc3c(F)c(-c4cc(O)cc5ccc(F)c(CC)c45)ncc23)CC1 [Example 102, (1-(7-(8-ethyl-7-fluoro-3-hydroxynaphthalen-1-yl)-8-fluoro-2-(((2R,7aS)-2-fluorotetrahydro-1H-pyrrolizin-7a(5H)-yl)methoxy)pyrido[4,3-d]pyrimidin-4-yl)-4-vinylpiperidin-4-yl)(3-methyl-1H-pyrazol-1-yl)methanone]
4 | 37 nM | 35 nM | 34 nM | 351 nM | 167 nM | CCc1c(F)ccc2cc(O)cc(-c3ncc4c(NC[C@@H]5C[C@@H]5C(=O)n5ccc(C)n5)nc(OC[C@@]56CCCN5C[C@H](F)C6)nc4c3F)c12 [Example 103, ((1S,2R)-2-(((7-(8-ethyl-7-fluoro-3-hydroxynaphthalen-1-yl)-8-fluoro-2-(((2R,7aS)-2-fluorotetrahydro-1H-pyrrolizin-7a(5H)-yl)methoxy)pyrido[4,3-d]pyrimidin-4-yl)amino)methyl)cyclopropyl)(3-methyl-1H-pyrazol-1-yl)methanone]
5 | 295 nM | 176 nM | 77 nM | 931 nM | 1580 nM | CCc1c(F)ccc2cc(O)cc(-c3ncc4c(N5CC6CCC(C(=O)n7ccc(C)n7)C6C5)nc(OC[C@@]56CCCN5C[C@H](F)C6)nc4c3F)c12 (stereo partly drawn) [Example 104, (2-(7-(8-ethyl-7-fluoro-3-hydroxynaphthalen-1-yl)-8-fluoro-2-(((2R,7aS)-2-fluorotetrahydro-1H-pyrrolizin-7a(5H)-yl)methoxy)pyrido[4,3-d]pyrimidin-4-yl)octahydrocyclopenta[c]pyrrol-4-yl)(3-methyl-1H-pyrazol-1-yl)methanone]
6 | 35 nM | 50 nM | 58 nM | 517 nM | > 10000 nM | CCc1c(F)ccc2cc(O)cc(-c3ncc4c(N5C[C@H]6CC[C@@]6(C(=O)n6ccc(C)n6)C5)nc(OC[C@@]56CCCN5C[C@H](F)C6)nc4c3F)c12 [Example 105, ((1S,5S)-3-(7-(8-ethyl-7-fluoro-3-hydroxynaphthalen-1-yl)-8-fluoro-2-(((2R,7aS)-2-fluorotetrahydro-1H-pyrrolizin-7a(5H)-yl)methoxy)pyrido[4,3-d]pyrimidin-4-yl)-3-azabicyclo[3.2.0]heptan-1-yl)(3-methyl-1H-pyrazol-1-yl)methanone]
7 | 22 nM | 14 nM | 40 nM | 529 nM | 584 nM | CCc1c(F)ccc2cc(O)cc(-c3ncc4c(N5CC6CCC(C(=O)n7ccc(C)n7)(C6)C5)nc(OC[C@@]56CCCN5C[C@H](F)C6)nc4c3F)c12 (stereo partly drawn) [Example 106, (3-(7-(8-ethyl-7-fluoro-3-hydroxynaphthalen-1-yl)-8-fluoro-2-(((2R,7aS)-2-fluorotetrahydro-1H-pyrrolizin-7a(5H)-yl)methoxy)pyrido[4,3-d]pyrimidin-4-yl)-3-azabicyclo[3.2.1]octan-1-yl)(3-methyl-1H-pyrazol-1-yl)methanone]
8 | 37 nM | 513 nM | 1060 nM | > 10000 nM | 2070 nM | C=CC1(C(=O)n2ccc(C)n2)CCN(c2nc(OC[C@@]34CCCN3C[C@H](F)C4)nc3c(F)c(-c4cc(O)cc5ccc(F)c(CC)c45)ncc23)C1 (stereo partly drawn) [Example 107, (1-(7-(8-ethyl-7-fluoro-3-hydroxynaphthalen-1-yl)-8-fluoro-2-(((2R,7aS)-2-fluorotetrahydro-1H-pyrrolizin-7a(5H)-yl)methoxy)pyrido[4,3-d]pyrimidin-4-yl)-3-vinylpyrrolidin-3-yl)(3-methyl-1H-pyrazol-1-yl)methanone]
9 | 339 nM | 1320 nM | 1040 nM | > 10000 nM | 2000 nM | C#CCC1(C(=O)n2ccc(C)n2)CCN(c2nc(OC[C@@]34CCCN3C[C@H](F)C4)nc3c(F)c(-c4cc(O)cc5ccc(F)c(CC)c45)ncc23)C1 (stereo partly drawn) [Example 108, (1-(7-(8-ethyl-7-fluoro-3-hydroxynaphthalen-1-yl)-8-fluoro-2-(((2R,7aS)-2-fluorotetrahydro-1H-pyrrolizin-7a(5H)-yl)methoxy)pyrido[4,3-d]pyrimidin-4-yl)-3-(prop-2-yn-1-yl)pyrrolidin-3-yl)(3-methyl-1H-pyrazol-1-yl)methanone]
10 | 134 nM | 99 nM | 73 nM | 316 nM | 1920 nM | CCc1c(F)ccc2cc(O)cc(-c3ncc4c(NC[C@@H]5[C@H](C(=O)n6ccc(C)n6)C5(C)C)nc(OC[C@@]56CCCN5C[C@H](F)C6)nc4c3F)c12 [Example 109, ((1S,3R)-3-(((7-(8-ethyl-7-fluoro-3-hydroxynaphthalen-1-yl)-8-fluoro-2-(((2R,7aS)-2-fluorotetrahydro-1H-pyrrolizin-7a(5H)-yl)methoxy)pyrido[4,3-d]pyrimidin-4-yl)amino)methyl)-2,2-dimethylcyclopropyl)(3-methyl-1H-pyrazol-1-yl)methanone]
11 | < 2 nM | 3 nM | 13 nM | 219 nM | 16 nM | CCc1c(F)ccc2cc(O)cc(-c3ncc4c(NCCCC(=O)n5ccc(C)n5)nc(OC[C@@]56CCCN5C[C@H](F)C6)nc4c3F)c12 [Example 111, 4-((7-(8-ethyl-7-fluoro-3-hydroxynaphthalen-1-yl)-8-fluoro-2-(((2R,7aS)-2-fluorotetrahydro-1H-pyrrolizin-7a(5H)-yl)methoxy)pyrido[4,3-d]pyrimidin-4-yl)amino)-1-(3-methyl-1H-pyrazol-1-yl) butan-1-one]
